Values after ≈ are worked out from the molar mass of the structure shown. Values joined by “and” are separate entries in the source; they are usually repeats but may differ in a detail not shown here. Equal values may be shown once. Read-outs that look alike come from different tables or passages of the source.
What was measured:
RnpA = target: T1, RnpA (Staphylococcus aureus, UniProt P0A0H5); assay: RnpA mRNA degradation activity assay; type: biochemical
T1 sequence (P0A0H5 1-117): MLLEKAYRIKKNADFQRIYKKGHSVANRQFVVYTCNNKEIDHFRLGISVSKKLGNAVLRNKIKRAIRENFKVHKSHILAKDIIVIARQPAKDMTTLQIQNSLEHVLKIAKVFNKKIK
How it was run: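 Total S. aureus RNA (1 μg) or in vitro transcribed spa mRNA (1 pmol) was incubated with 20 pmol RnpA plus compound for 15–30 min at 37° C in 50 mM Tris-HCl pH 8.0, 2 mM NaCl, 2 mM MgCl2. RNA was resolved on denaturing formaldehyde-agarose gels and quantified by densitometry. Percent inhibition is relative to RNA-alone and RnpA+DMSO controls.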

S. aureus strain UAMS-1 = assay: Fractional Inhibitory Concentration testing with mupirocin; type: cell-based; details: combined with mupirocin, S. aureus UAMS-1, Mueller Hinton broth, 18 hours; synergistic FIC≤0.5
Experimental: The RNase P inhibitors described herein were tested for Fractional Inhibitory Concentration (FIC) in the presence of mupirocin. FIC testing was performed to determine the combined effects of mupirocin and the RnpA inhibitors as described herein. Individual wells of a 96-well microtiter plate were inoculated with 1×10^5 CFU of S. aureus strain UAMS-1 in a Mueller Hinton broth. Each row of the plate contained increasing concentrations of RNPA1000 or RNPA2000 (two-fold increments; 0, 0.004, 0.008, 0.016, 0.03, 0.06, 0.125, 0.25, 0.5, 1, 2, or 4×MIC), whereas each column contained increasing concentrations of the indicated antibiotic (two-fold increments; 0, 0.06, 0.125, 0.25, 0.5, 1, 2, or 4×MIC). Plates were incubated for 18 hours at 37° C., and growth was detected by the unaided eye. The FIC was determined using the following formula: (MIC of Drug A in Combination/MIC of Drug A Alone)+(MIC of Drug B in Combination/MIC of Drug B Alone)=FIC. A synergistic interaction was defined as an FIC value≤0.5, no interaction as an FIC of 0.5-4, or an antagonistic interaction FIC>4.

[1] = test system: Staphylococcus aureus strain UAMS-1; assay: Antimicrobial susceptibility testing (MIC, broth microdilution); type: cell-based; details: S. aureus UAMS-1, Mueller Hinton broth, 37° C.
How it was run: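 Broth microdilution in Mueller Hinton broth, 37 °C for 18 h, with about 1×10^5 CFU of strain UAMS-1 per well and doubling compound concentrations from 0 to 256 μg mL−1. The endpoint was the lowest concentration without visible growth. Wells at or above that level were plated and counted for bactericidal activity.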

[2] = target: T2, S. aureus RNase P (RnpA+rnpB) (Staphylococcus aureus, UniProt P0A0H5); assay: RNase P activity assay (precursor tRNA processing); type: biochemical; details: for IC50: ptRNATyr processing, gel densitometry, read-out: RNase P IC50
T2 sequence (P0A0H5 1-117): T1 sequence (P0A0H5 1-117)
How it was run: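 Reconstituted RnpA+rnpB (1.25 pmol) processed 10 pmol heat-denatured ptRNATyr for 15 min at 37 °C in low-salt (5 mM MgCl2) or high-salt (100 mM MgCl2, 800 mM NH4Cl) Tris pH 8.0 buffer with inhibitor or DMSO. Mature tRNATyr quantified by urea-PAGE densitometry, expressed as % of DMSO control.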

[3] = test system: RNase P-mediated tRNA processing; assay: Precursor tRNA processing within bacterial cells (FIG. 1, Panel B); type: cell-based
Source text: Mupirocin is a generically available antibiotic that inhibits isoleucyl tRNA synthetase in bacterial cells. The enzyme charges tRNA molecules, allowing them to participate in protein translation. RnpA is an enzyme, which together with the ribozyme, rnpB, forms RNase P riboprotein complex that prepares precursor tRNA molecules for charging (it works upstream of tRNA synthetase in the tRNA processing pathway).

Staphylococcus aureus = assay: Antimicrobial activity of ointment / petroleum jelly suspensions (FIG. 2, Panel A); type: cell-based; details: subinhibitory concentration in petroleum jelly, S. aureus
Source text: The addition of an RnpA inhibitor, such as RNPA2000, to mupirocin ointment (Teva Pharmaceuticals USA (North Wales, Pa.)) improved the antimicrobial efficacy of the ointment and is also effective against mupirocin resistant S. aureus. […] See FIG. 2, Panel A, upper left picture. […] See FIG. 2, Panel A, upper right picture.

[4] = RnpA mRNA degradation, gel densitometry, read-out: RnpA IC50
[5] = Staphylococcus aureus, UAMS1, 18 h, read-out: MIC

| Compound | IC50 (RnpA; [4]) | FIC with Mupirocin (S. aureus strain UAMS-1) | MIC [1, 5] | IC50 [2] | precursor tRNA processing within bacterial cells [3] | antimicrobial properties in petroleum jelly (Staphylococcus aureus) | MIC ([1]; 18 hours, listed as MC-220000) | precursor tRNA processing in vitro ([2]; FIG. 1, Panel A) | IC50 (RnpA) |
| --- | --- | --- | --- | --- | --- | --- | --- | --- | --- |
| CCOc1ccc(C(=O)NC(=S)NNC(=O)COc2cc(C)ccc2C(C)C)cc1 [ST5528173] | > 500 µM | 1 | 32 µg/mL (≈ 74.5 µM) | 230 µM | – | – | – | – | – |
| Cc1cc(OCC(=O)NNC(=S)NC(=O)c2ccc(Br)o2)ccc1Cl [ST5522821] | 35 µM | 0.75 | 16 µg/mL (≈ 35.8 µM) | 220 µM | – | – | – | – | – |
| CC(C)c1ccc(OCC(=O)NNC(=S)NC(=O)c2cc3ccccc3s2)cc1 [MC-220001] | 50 µM | 0.56 | > 256 µg/mL | 100 µM | – | – | – | – | – |
| Cc1occc1C(=O)NNC(=S)NC(=O)COc1ccc(Cl)cc1Cl [ST5523108] | > 500 µM | 0.49 | 4 µg/mL (≈ 9.94 µM) | 75 µM | – | – | – | – | – |
| O=C(NC(=S)NNC(=O)C1C[C@H]1c1ccccc1)c1ccco1 (stereo partly drawn) [MC-190068] | > 500 µM | 0.5 | 32 µg/mL (≈ 97.2 µM) | 370 µM | – | – | – | – | – |
| CC(C)c1ccccc1OCC(=O)NNC(=S)NC(=O)/C=C/c1cccs1 [ST5523210] | 45 µM | 0.75 | 32 µg/mL (≈ 79.3 µM) | 110 µM | – | – | – | – | – |
| CC(C)c1ccc(OCC(=O)NNC(=S)NC(=O)c2c[nH]c3ccccc23)cc1 [MC-190055] | 40 µM | 0.56 | 32 µg/mL (≈ 78 µM) | 90 µM | – | – | – | – | – |
| CC(C)c1ccc(OCC(=O)NNC(=S)NC(=O)c2ccco2)cc1 [RNPA2000] | 275 µM and 180 µM | 0.44 | 16 µg/mL (≈ 44.3 µM) | 140 µM and 300 µM | inhibits precursor tRNA processing | no antimicrobial properties | 8 µg/mL (≈ 22.1 µM) | inhibits precursor tRNA processing | – |
| O=C(COc1ccc(-c2ccccc2)cc1)NNC(=S)NC(=O)c1ccc(Br)o1 [ST5524465] | 45 µM | 0.625 | 32 µg/mL (≈ 67.5 µM) | 65 µM | – | – | – | – | – |
| CC(C)c1ccc(OCC(=O)NNC(=S)NC(=O)/C=C/c2ccco2)cc1 [MC-190045] | 100 µM | 0.625 | 64 µg/mL (≈ 165 µM) | 32 µM | – | – | – | – | – |
| COc1ccccc1C(=O)NC(=S)NNC(=O)COc1ccc(C(C)C)cc1 [MC-190033] | 250 µM | 0.3125 | 128 µg/mL (≈ 319 µM) | > 500 µM | – | – | – | – | – |
| CC(C)c1ccc(OCC(=O)NNC(=S)NC(=O)c2ccccn2)cc1 [MC-190053] | 100 µM | 0.49 | 32 µg/mL (≈ 85.9 µM) | 1 µM | – | – | – | – | – |
| COc1ccc2[nH]c(C(=O)NC(=S)NNC(=O)COc3ccc(C(C)C)cc3)cc2c1 [MC-190060] | 50 µM | 0.49 | 32 µg/mL (≈ 72.6 µM) | < 50 µM | – | – | – | – | – |
| CCCOc1ccc(C(=O)NNC(=S)NC(=O)c2ccco2)cc1 [ST5684191] | > 500 µM | 0.375 | 8 µg/mL (≈ 23 µM) | > 500 µM | – | – | – | – | – |
| Cc1cccc(C)c1OCC(=O)NNC(=S)NC(=O)c1ccc(-c2ccccc2)cc1 [ST5523335] | > 500 µM | 0.375 | 128 µg/mL (≈ 295 µM) | 100 µM | – | – | – | – | – |
| CC(C)c1ccc(OCC(=O)NNC(=S)NC(=O)c2cccs2)cc1 [MC-190029] | > 500 µM | 0.5 | 128 µg/mL (≈ 339 µM) | 380 µM | – | – | – | – | – |
| CC(C)c1ccc(OCC(=O)NNC(=S)NC(=O)c2ccc(Br)o2)cc1 [MC-190046] | 30 µM | 0.3125 | 32 µg/mL (≈ 72.7 µM) | 140 µM | – | – | – | – | – |
| CCCc1ccc(OCC(=O)NNC(=S)NC(=O)c2ccco2)cc1 [ST5682783] | > 500 µM | 0.31 | > 128 µg/mL | 65 µM | – | – | – | – | – |
| CC(Oc1ccc2ccccc2c1)C(=O)NNC(=S)NC(=O)c1ccco1 (stereo not drawn) [ST5682782] | > 500 µM | 0.25 | > 128 µg/mL | > 500 µM | – | – | – | – | – |
| Cc1ccccc1OCC(=O)NNC(=S)NC(=O)c1ccco1 [ST5522690] | > 500 µM | 1 | 16 µg/mL (≈ 48 µM) | > 500 µM | – | – | – | – | – |
| CC(C)c1ccc(OCC(=O)NNC(=S)NC(=O)c2cc3ccccc3[nH]2)cc1 [MC-190054] | 50 µM | 0.49 | 16 µg/mL (≈ 39 µM) | < 0.5 µM | – | – | – | – | – |
| CC(C)(C)c1ccc(OCC(=O)NNC(=S)NC(=O)c2ccco2)c(Br)c1 [ST5524527] | > 500 µM | 0.625 | 8 µg/mL (≈ 17.6 µM) | 200 µM | – | – | – | – | – |
| Cc1ccc(OCC(=O)NNC(=S)NC(=O)c2ccc(Br)o2)c(C)c1 [ST5523326] | 380 µM | 0.375 | 8 µg/mL (≈ 18.8 µM) | 75 µM | – | – | – | – | – |
| CC(C)c1ccc(OCC(=O)NNC(=S)NC(=O)c2ccsc2)cc1 [MC-190030] | – | 0.375 | 64 µg/mL (≈ 170 µM) | 395 µM | – | – | – | – | > 500 µM |
| CC(C)c1ccc(OCC(=O)NNC(=S)NC(=O)c2cccnc2)cc1 [MC-190049] | – | 1 | 64 µg/mL (≈ 172 µM) | 160 µM | – | – | – | – | > 500 µM |
| CC(C)c1ccc(OCC(=O)NNC(=S)NC(=O)c2cc3ccc(Cl)cc3[nH]2)cc1 [MC-190066] | 250 µM | 0.75 | 16 µg/mL (≈ 36 µM) | < 50 µM | – | – | – | – | – |

Reference: patent US10028931B2, “Synergistic compositions for treating microbial infections” (UNIVERSITY OF ROCHESTER, priority 2014, dated 2018)
